Source: PubChem BioAssay AID2060898 (Molecular Pharmacology Branch, DTP, NCI, 2025)
pIC50: −log10 of the molar value.

Tested on: 616215-338-R-J1-PDC complex spheroid viability
Test: Anticancer human tumor 616215-338-R-J1-PDC patient-derived colon adenocarcinoma cell line growth inhibition [RAS]
Conditions: for pIC50: curve of first compound; for viability, T/C: stronger effect = lower value
In short: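 Tumour cells grown as complex spheroids with HUVEC endothelial cells and mesenchymal stem cells, treated with RAS pathway inhibitor combinations. Each agent spans half-log steps from near clinical Cmax, or 10 microM where Cmax is unknown.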
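Also: spheroids exposed to agents for seven days before viability readout.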
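For viability, T/C in this document: 100% = DMSO vehicle control viability.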

## C=CC(=O)N1CCN(c2nc(OCC3CCCN3C)nc3c(F)c(-c4nc(N)cc(C)c4C(F)(F)F)c(Cl)cc23)C(C)C1 (centres undefined) + CCn1c(-c2cccnc2C(C)OC)c2c3cc(ccc31)N1CCOC(CC(NC(=O)C(C(C)C)N(C)C(=O)C3(F)CCN(C(=O)C#CC(C)(C)N(C)C)CC3)C(=O)N3CCCC(N3)C(=O)OCC(C)(C)C2)C1
Second compound 0.000949 µM
  pIC50: < 6.00
Second compound 0.003 µM
  pIC50: < 6.00
Second compound 0.00949 µM
  pIC50: < 6.00
Second compound 0.03 µM
  pIC50: < 6.00
Second compound 0.0949 µM
  pIC50: < 6.00
Second compound 0.3 µM
  pIC50: < 6.00
Second compound 0.000949 µM, first compound 0.00316 µM
  viability, T/C: 106%
Second compound 0.000949 µM, first compound 0.01 µM
  viability, T/C: 100%
Second compound 0.000949 µM, first compound 0.0316 µM
  viability, T/C: 106%
Second compound 0.000949 µM, first compound 0.1 µM
  viability, T/C: 108%
Second compound 0.000949 µM, first compound 0.316 µM
  viability, T/C: 115%
Second compound 0.000949 µM, first compound 1 µM
  viability, T/C: 103%
Second compound 0.003 µM, first compound 0.00316 µM
  viability, T/C: 103%
Second compound 0.003 µM, first compound 0.01 µM
  viability, T/C: 114%
Second compound 0.003 µM, first compound 0.0316 µM
  viability, T/C: 100%
Second compound 0.003 µM, first compound 0.1 µM
  viability, T/C: 111%
Second compound 0.003 µM, first compound 0.316 µM
  viability, T/C: 116%
Second compound 0.003 µM, first compound 1 µM
  viability, T/C: 101%
Second compound 0.00949 µM, first compound 0.00316 µM
  viability, T/C: 106%
Second compound 0.00949 µM, first compound 0.01 µM
  viability, T/C: 101%
Second compound 0.00949 µM, first compound 0.0316 µM
  viability, T/C: 106%
Second compound 0.00949 µM, first compound 0.1 µM
  viability, T/C: 104%
Second compound 0.00949 µM, first compound 0.316 µM
  viability, T/C: 106%
Second compound 0.00949 µM, first compound 1 µM
  viability, T/C: 100%
Second compound 0.03 µM, first compound 0.00316 µM
  viability, T/C: 118%
Second compound 0.03 µM, first compound 0.01 µM
  viability, T/C: 110%
Second compound 0.03 µM, first compound 0.0316 µM
  viability, T/C: 105%
Second compound 0.03 µM, first compound 0.1 µM
  viability, T/C: 115%
Second compound 0.03 µM, first compound 0.316 µM
  viability, T/C: 101%
Second compound 0.03 µM, first compound 1 µM
  viability, T/C: 98.6%
Second compound 0.0949 µM, first compound 0.00316 µM
  viability, T/C: 135%
Second compound 0.0949 µM, first compound 0.01 µM
  viability, T/C: 113%
Second compound 0.0949 µM, first compound 0.0316 µM
  viability, T/C: 109%
Second compound 0.0949 µM, first compound 0.1 µM
  viability, T/C: 127%
Second compound 0.0949 µM, first compound 0.316 µM
  viability, T/C: 126%
Second compound 0.0949 µM, first compound 1 µM
  viability, T/C: 116%
Second compound 0.3 µM, first compound 0.00316 µM
  viability, T/C: 117%
Second compound 0.3 µM, first compound 0.01 µM
  viability, T/C: 108%
Second compound 0.3 µM, first compound 0.0316 µM
  viability, T/C: 107%
Second compound 0.3 µM, first compound 0.1 µM
  viability, T/C: 112%
Second compound 0.3 µM, first compound 0.316 µM
  viability, T/C: 113%
Second compound 0.3 µM, first compound 1 µM
  viability, T/C: 107%

## CC1(C)CCC(Nc2ncc(C(F)(F)F)c(-c3c[nH]c4c(P(C)(C)=O)c(C#N)ccc34)n2)CN1 (centres undefined) + CCn1c(-c2cccnc2C(C)OC)c2c3cc(ccc31)N1CCOC(CC(NC(=O)C(C(C)C)N(C)C(=O)C3(F)CCN(C(=O)C#CC(C)(C)N(C)C)CC3)C(=O)N3CCCC(N3)C(=O)OCC(C)(C)C2)C1
Second compound 0.000949 µM
  pIC50: 7.80
Second compound 0.003 µM
  pIC50: 7.82
Second compound 0.00949 µM
  pIC50: 7.86
Second compound 0.03 µM
  pIC50: 7.88
Second compound 0.0949 µM
  pIC50: 8.03
Second compound 0.3 µM
  pIC50: 8.08
Second compound 0.000949 µM, first compound 0.000949 µM
  viability, T/C: 108%
Second compound 0.000949 µM, first compound 0.003 µM
  viability, T/C: 107%
Second compound 0.000949 µM, first compound 0.00949 µM
  viability, T/C: 62.8%
Second compound 0.000949 µM, first compound 0.03 µM
  viability, T/C: 34.2%
Second compound 0.000949 µM, first compound 0.0949 µM
  viability, T/C: 33.9%
Second compound 0.000949 µM, first compound 0.3 µM
  viability, T/C: 31.9%
Second compound 0.003 µM, first compound 0.000949 µM
  viability, T/C: 107%
Second compound 0.003 µM, first compound 0.003 µM
  viability, T/C: 111%
Second compound 0.003 µM, first compound 0.00949 µM
  viability, T/C: 60.2%
Second compound 0.003 µM, first compound 0.03 µM
  viability, T/C: 39.3%
Second compound 0.003 µM, first compound 0.0949 µM
  viability, T/C: 32.2%
Second compound 0.003 µM, first compound 0.3 µM
  viability, T/C: 35.2%
Second compound 0.00949 µM, first compound 0.000949 µM
  viability, T/C: 113%
Second compound 0.00949 µM, first compound 0.003 µM
  viability, T/C: 103%
Second compound 0.00949 µM, first compound 0.00949 µM
  viability, T/C: 57%
Second compound 0.00949 µM, first compound 0.03 µM
  viability, T/C: 35.7%
Second compound 0.00949 µM, first compound 0.0949 µM
  viability, T/C: 32.9%
Second compound 0.00949 µM, first compound 0.3 µM
  viability, T/C: 36.5%
Second compound 0.03 µM, first compound 0.000949 µM
  viability, T/C: 115%
Second compound 0.03 µM, first compound 0.003 µM
  viability, T/C: 117%
Second compound 0.03 µM, first compound 0.00949 µM
  viability, T/C: 57%
Second compound 0.03 µM, first compound 0.03 µM
  viability, T/C: 34.6%
Second compound 0.03 µM, first compound 0.0949 µM
  viability, T/C: 32.9%
Second compound 0.03 µM, first compound 0.3 µM
  viability, T/C: 32.4%
Second compound 0.0949 µM, first compound 0.000949 µM
  viability, T/C: 119%
Second compound 0.0949 µM, first compound 0.003 µM
  viability, T/C: 93%
Second compound 0.0949 µM, first compound 0.00949 µM
  viability, T/C: 50.3%
Second compound 0.0949 µM, first compound 0.03 µM
  viability, T/C: 27.6%
Second compound 0.0949 µM, first compound 0.0949 µM
  viability, T/C: 31.2%
Second compound 0.0949 µM, first compound 0.3 µM
  viability, T/C: 27.1%
Second compound 0.3 µM, first compound 0.000949 µM
  viability, T/C: 95.1%
Second compound 0.3 µM, first compound 0.003 µM
  viability, T/C: 95.3%
Second compound 0.3 µM, first compound 0.00949 µM
  viability, T/C: 44.8%
Second compound 0.3 µM, first compound 0.03 µM
  viability, T/C: 28.8%
Second compound 0.3 µM, first compound 0.0949 µM
  viability, T/C: 28.4%
Second compound 0.3 µM, first compound 0.3 µM
  viability, T/C: 34.6%
